Assay results published in PMC12860872, “Preclinical evaluation of DOTAGA.Glu.(FAPI)2 and DO3A.Glu.(FAPI)2 as theranostics with human dosimetry extrapolation to lutetium-177 and terbium-161 analogs” (European Journal of Nuclear Medicine and Molecular Imaging, 2025).
Several values for one entry are separate records, joined by “and”; a condition that tells them apart may be missing. Identical values can stand only once.

Tests used:
PC3-mice = experiment: Biodistribution in PC3-mice incl. blocking; type: in vivo, mouse; conditions: PC3-mice
Description: Male athymic Balb/C nude mice (6 weeks/20–25 g) were implanted with PC3 cells (3.5 × 10^6/100 µL PBS) into their right shoulder to develop tumors. The animals were used for biodistribution and PET/SPECT/CT imaging studies, once tumors reached 250–300 mm^3.
All mice were euthanized with intraperitoneal injection of pentobarbital (150 mg/kg), and selected organs were dissected, weighed, and measured for radioactivity using a gamma-counter. Results are expressed as % injected activity per gram tissue (% I.A./g), presented as mean ± SD (n = 3–4).

FAP = target: T1, FAP (Homo sapiens, UniProt Q12884); experiment: Saturation binding on FAP+ CAFs; conditions: listed as 68/natGa-DOTAGA.Glu.(FAPI)2
T1 construct: the CAF cells overexpressing FAP were seeded at a density of 0.8-1 million cells per well; host or cells: hTERT PF179T prostate cancer-associated fibroblasts
T1 sequence (Q12884 1-760): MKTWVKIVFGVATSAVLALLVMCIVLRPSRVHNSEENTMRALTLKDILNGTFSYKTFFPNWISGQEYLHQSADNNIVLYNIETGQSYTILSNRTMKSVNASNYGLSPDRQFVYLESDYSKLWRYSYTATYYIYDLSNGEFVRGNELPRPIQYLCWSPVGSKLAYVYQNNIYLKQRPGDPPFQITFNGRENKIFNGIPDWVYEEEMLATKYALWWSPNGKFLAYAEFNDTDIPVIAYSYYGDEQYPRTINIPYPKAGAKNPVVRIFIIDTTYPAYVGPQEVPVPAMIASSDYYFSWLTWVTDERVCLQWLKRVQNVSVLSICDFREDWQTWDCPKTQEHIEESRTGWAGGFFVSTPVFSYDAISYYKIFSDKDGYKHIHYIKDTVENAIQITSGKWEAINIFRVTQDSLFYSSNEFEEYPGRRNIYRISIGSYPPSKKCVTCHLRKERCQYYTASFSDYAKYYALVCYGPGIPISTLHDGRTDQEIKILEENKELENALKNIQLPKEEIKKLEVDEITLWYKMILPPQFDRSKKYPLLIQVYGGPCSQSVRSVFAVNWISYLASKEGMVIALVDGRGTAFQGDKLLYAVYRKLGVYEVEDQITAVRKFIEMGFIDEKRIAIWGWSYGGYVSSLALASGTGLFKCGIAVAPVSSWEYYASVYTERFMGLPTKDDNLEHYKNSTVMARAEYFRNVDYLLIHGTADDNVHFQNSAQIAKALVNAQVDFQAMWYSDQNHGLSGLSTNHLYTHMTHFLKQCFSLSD
Description: For receptor saturation studies, FAP^+ CAFs were incubated with 0.1 to 10 nM of the radioligands. For internalization studies, approximately 2.5 pmol of the radioligands were added to CAFs followed by incubation for 15, 30, 60, 90, 120, 180 and 240 min for the ^68Ga-labeled or 30, 60, 120, 240 and 360 min for the ^177Lu-labeled radioligands at 37 °C, 5% CO2. For the externalization studies, approximately 2.5 pmol of the ^177Lu-labeled radioligands were added to CAFs followed by incubation for 2 h at 37 °C, 5% CO2. The amount of externalized activity was measured at 0, 10, 20, 30, 60, 120, 240, and 1440 min (Supplemental Data).
For receptor saturation analysis, the CAF cells overexpressing FAP were seeded at a density of 0.8-1 million cells per well in 6-well plates, pre-coated with BME (Cultrex Reduced Growth Factor Basement Membrane Extract, RGF BME, R&D System, Minneapolis, USA) to enhance cell attachment. The cells were incubated overnight with medium (EMEM supplemented and containing 10% FBS, 100 U/mL penicillin and 100 μg/mL streptomycin). The next day, the medium was removed and the cells were incubated for 30 minutes at 37 °C, with 0.8 mL of fresh medium. Afterwards, the plates were placed on ice for 30 minutes followed by incubation with increasing concentrations of ^68/natGa- and ^177/natLu-labelled DOTAGA.Glu.(FAPI)2 and DO3A.Glu.( FAPI)2 (0.1-10 nM final concentration in the wells). After the addition of the radioligands, the cells were incubated for 120 minutes at 4 °C. Non-specific binding was determined in the presence of UAMC1110 at a final concentration of 1 μM. After the completion of the incubation, the cells were washed twice with ice-cold PBS, followed by solubilization with 1 M NaOH. The cell-associated radioactivity was measured using a gamma-counter. Specific binding was plotted against the total molar concentration of the added radiotracer. The Kd values and the concentration of the radioligand required to saturate the receptors (Bmax) were determined by nonlinear regression using GraphPad (Prism 8 Graph Pad Software, San Diego, CA). For all the cell studies the values are normalized for 1x10^6 cells per well and all data are from two independent experiments with triplicates in each experiment.

[1] = Blocking 1h (20 nmol unlabeled precursor)

Uptake in Adrenal (PC3-mice; 1 h p.i.): 3.6±0.6 %I.A./g
Uptake in Blood (PC3-mice; 1 h p.i.): 3.5 ± 0.2 %I.A./g
Uptake in Bone (PC3-mice; 1 h p.i.): 4.9±0.8 %I.A./g
Uptake in Gallbladder (PC3-mice; 1 h p.i.): 3.2±0.6 %I.A./g
Uptake in Heart (PC3-mice; 1 h p.i.): 1.6±0.2 %I.A./g
Uptake in Intestine (PC3-mice; 1 h p.i.): 1.4±0.2 %I.A./g
Uptake in Kidney (PC3-mice; 1 h p.i.): 8.3±0.7 %I.A./g
Uptake in Liver (PC3-mice; 1 h p.i.): 3±0.4 %I.A./g
Uptake in Lung (PC3-mice; 1 h p.i.): 3.7±0.6 %I.A./g
Uptake in Muscle (PC3-mice; 1 h p.i.): 1.9±0.2 %I.A./g
Uptake in Pancreas (PC3-mice; 1 h p.i.): 2.5±0.2 %I.A./g
Uptake in Salivary glands (PC3-mice; 1 h p.i.): 8.2±0.5 %I.A./g
Uptake in Spleen (PC3-mice; 1 h p.i.): 1.6±0.01 %I.A./g
Uptake in Stomach (PC3-mice; 1 h p.i.): 1.3±0.2 %I.A./g
Uptake in Tumor (PC3-mice; 1 h p.i.): 18.2 ± 2.3 %I.A./g and 18.2±3.8 %I.A./g
Uptake in Adrenal (PC3-mice; 2 h p.i.): 4.2±0.2 %I.A./g
Uptake in Blood (PC3-mice; 2 h p.i.): 2.6±0.1 %I.A./g
Uptake in Bone (PC3-mice; 2 h p.i.): 6.4±1.2 %I.A./g
Uptake in Gallbladder (PC3-mice; 2 h p.i.): 2.3±0.4 %I.A./g
Uptake in Heart (PC3-mice; 2 h p.i.): 1±0.01 %I.A./g
Uptake in Intestine (PC3-mice; 2 h p.i.): 1±0.03 %I.A./g
Uptake in Kidney (PC3-mice; 2 h p.i.): 4.8±0.5 %I.A./g
Uptake in Liver (PC3-mice; 2 h p.i.): 1.4±0.04 %I.A./g
Uptake in Lung (PC3-mice; 2 h p.i.): 1.7±0.2 %I.A./g
Uptake in Muscle (PC3-mice; 2 h p.i.): 1.7±0.3 %I.A./g
Uptake in Pancreas (PC3-mice; 2 h p.i.): 2.3±0.1 %I.A./g
Uptake in Salivary glands (PC3-mice; 2 h p.i.): 6.5±1.1 %I.A./g
Uptake in Spleen (PC3-mice; 2 h p.i.): 1±0.1 %I.A./g
Uptake in Stomach (PC3-mice; 2 h p.i.): 0.9±0.04 %I.A./g
Uptake in Tumor (PC3-mice; 2 h p.i.): 17.8 ± 0.5 %I.A./g
Uptake in Adrenal (PC3-mice; 3 h p.i.): 3.9±2 %I.A./g
Uptake in Blood (PC3-mice; 3 h p.i.): 2.5 ± 0.1 %I.A./g
Uptake in Bone (PC3-mice; 3 h p.i.): 6.7±0.1 %I.A./g
Uptake in Gallbladder (PC3-mice; 3 h p.i.): 2.6±1.1 %I.A./g
Uptake in Heart (PC3-mice; 3 h p.i.): 1±0.2 %I.A./g
Uptake in Intestine (PC3-mice; 3 h p.i.): 1.1±0.1 %I.A./g
Uptake in Kidney (PC3-mice; 3 h p.i.): 4.4±0.4 %I.A./g
Uptake in Liver (PC3-mice; 3 h p.i.): 1.6±0.2 %I.A./g
Uptake in Lung (PC3-mice; 3 h p.i.): 1.4±0.1 %I.A./g
Uptake in Muscle (PC3-mice; 3 h p.i.): 1.6±0.2 %I.A./g
Uptake in Pancreas (PC3-mice; 3 h p.i.): 2±0.1 %I.A./g
Uptake in Salivary glands (PC3-mice; 3 h p.i.): 6±0.1 %I.A./g
Uptake in Spleen (PC3-mice; 3 h p.i.): 1.1±0.2 %I.A./g
Uptake in Stomach (PC3-mice; 3 h p.i.): 1±0.1 %I.A./g
Uptake in Tumor (PC3-mice; 3 h p.i.): 18.4 ± 2.2 %I.A./g and 18.4±2.1 %I.A./g
Uptake in Adrenal (PC3-mice; [1]): 0.7±0.1 %I.A./g
Uptake in Blood (PC3-mice; [1]): 1.7±0.5 %I.A./g
Uptake in Bone (PC3-mice; [1]): 0.3±0.2 %I.A./g
Uptake in Gallbladder (PC3-mice; [1]): 5.5±0.6 %I.A./g
Uptake in Heart (PC3-mice; [1]): 0.6±0.1 %I.A./g
Uptake in Intestine (PC3-mice; [1]): 0.6±0.3 %I.A./g
Uptake in Kidney (PC3-mice; [1]): 5.6±1.8 %I.A./g
Uptake in Liver (PC3-mice; [1]): 0.6±0.2 %I.A./g
Uptake in Lung (PC3-mice; [1]): 1.3±0.5 %I.A./g
Uptake in Muscle (PC3-mice; [1]): 0.2±0.1 %I.A./g
Uptake in Pancreas (PC3-mice; [1]): 0.3±0.1 %I.A./g
Uptake in Salivary glands (PC3-mice; [1]): 0.7±0.1 %I.A./g
Uptake in Spleen (PC3-mice; [1]): 0.5±0.1 %I.A./g
Uptake in Stomach (PC3-mice; [1]): 0.5±0.1 %I.A./g
Uptake in Tumor (PC3-mice; [1]): 1.4±0.5 %I.A./g
tumor uptake (PC3-mice; sustained up to 3 h p.i.): 18–19 %I.A./g
Kd (FAP; 0.1 to 10 nM radioligand): 0.8 nM and 0.77 nM
Bmax (FAP): 0.7 ± 0.04 nM and 0.67 ± 0.04 nM
SMILES: N#C[C@@H]1CC(F)(F)CN1C(=O)CNC(=O)c1ccnc2ccc(OCCCCNC(=O)CC[C@H](NC(=O)CCC(C(=O)O)N3CCN(CC(=O)[O-])CCN(CC(=O)[O-])CCN(CC(=O)[O-])CC3)C(=O)NCCCCOc3ccc4nccc(C(=O)NCC(=O)N5CC(F)(F)C[C@H]5C#N)c4c3)cc12.[68Ga+3] (stereo partly drawn) [[^68Ga]Ga-DOTAGA.Glu.(FAPI)2]
